According to ChEMBL document CHEMBL1201862, “PubChem BioAssay data set” (2004):
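Protocol summary: plate cells (96-well), add compound at 5 concentrations, incubate 48 h, interpolate endpoints linearly. Abbreviation: GI50, concentration required for 50% inhibition of growth.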 Calls of active or inactive are those of the source. No stated cut-off is given here; in the data, active = GI50 up to about 1.1 µM and inactive = higher.

Columns and labels:
Assay in all cases: NCI anticancer screen, dose series, 48 h
U-251 = system: U-251
SF-268 = system: SF-268
MDA-MB-435 = system: MDA-MB-435
OVCAR-5 = system: OVCAR-5
HL-60 = system: HL-60
KM12 = system: KM12
BT-549 = system: BT-549
HCC 2998 = system: HCC 2998
UACC-257 = system: UACC-257
RXF 393 = system: RXF 393
CCRF-CEM = system: CCRF-CEM
OVCAR-8 = system: OVCAR-8
MDA-N = system: MDA-N
SW-620 = system: SW-620
NCI-H226 = system: NCI-H226
MDA-MB-231 = system: MDA-MB-231
OVCAR-3 = system: OVCAR-3
TK-10 = system: TK-10
SR = system: SR
SK-MEL-5 = system: SK-MEL-5
PC-3 = system: PC-3
HOP-62 = system: HOP-62
MOLT-4 = system: MOLT-4
UACC-62 = system: UACC-62
CAKI-1 = system: CAKI-1
SK-MEL-28 = system: SK-MEL-28
SNB-75 = system: SNB-75
HCT-15 = system: HCT-15
K562 = system: K562
COLO 205 = system: COLO 205
HCT-116 = system: HCT-116
NCI/ADR-RES = system: NCI/ADR-RES
HT-29 = system: HT-29
LOX IMVI = system: LOX IMVI
T47D = system: T47D
SF-539 = system: SF-539
OVCAR-4 = system: OVCAR-4
DU-145 = system: DU-145
RPMI-8226 = system: RPMI-8226
NCI-H522 = system: NCI-H522
IGROV-1 = system: IGROV-1
ACHN = system: ACHN
SN12C = system: SN12C
Malme-3M = system: Malme-3M
786-0 = system: 786-0
NCI-H23 = system: NCI-H23
UO-31 = system: UO-31
NCI-H460 = system: NCI-H460
MCF7 = system: MCF7
HOP-92 = system: HOP-92
SF-295 = system: SF-295
SNB-19 = system: SNB-19
M14 = system: M14
SK-MEL-2 = system: SK-MEL-2
EKVX = system: EKVX
A549 = system: A549
A498 = system: A498
SK-OV-3 = system: SK-OV-3

In the case of `CC(=O)OCC1OC(O[C@@H]2C[C@H]3C(C)(C)[C@H](OC(C)=O)CC[C@]3(C)[C@H]3CCC4=C([C@@H](C)C[C@@H](O)[C@H](O)C(C)(C)O)CC[C@@]4(C)[C@@]32C)C(O)C(O)C1O` (some centres not stated), the GI50 (U-251) is reported as 14.6 µM (inactive) and the GI50 (SF-268) is reported as 13.6 µM (inactive).
For `CCOC(=O)c1ccc(/N=N/N(C)C(=O)C(C)N)cc1` (configuration not stated), the GI50 (MDA-MB-435) was 56.8 µM (inactive), the GI50 (OVCAR-5) was > 100 µM (inactive) and the GI50 (U-251) was > 100 µM (inactive). For the same compound, the GI50 (HL-60) was > 100 µM (inactive), the GI50 (KM12) was > 100 µM (inactive) and the GI50 (BT-549) was 98.6 µM (inactive). For the same compound, the GI50 (HCC 2998) was > 100 µM (inactive), the GI50 (UACC-257) was > 100 µM (inactive) and the GI50 (RXF 393) was > 100 µM (inactive). For the same compound, the GI50 (CCRF-CEM) was > 100 µM (inactive), the GI50 (OVCAR-8) was > 100 µM (inactive) and the GI50 (MDA-N) was 78.3 µM (inactive). The GI50 (SW-620) was > 100 µM (inactive), the GI50 (NCI-H226) was > 100 µM (inactive) and the GI50 (MDA-MB-231) was > 100 µM (inactive). For the same compound, the GI50 (OVCAR-3) was > 100 µM (inactive), the GI50 (SF-268) was > 100 µM (inactive) and the GI50 (TK-10) was > 100 µM (inactive). For the same compound, the GI50 (SR) was 36.1 µM (inactive), the GI50 (SK-MEL-5) was > 100 µM (inactive) and the GI50 (PC-3) was > 100 µM (inactive). For the same compound, the GI50 (HOP-62) was > 100 µM (inactive), the GI50 (MOLT-4) was 43.7 µM (inactive) and the GI50 (UACC-62) was > 100 µM (inactive). The GI50 (CAKI-1) was 92.5 µM (inactive), the GI50 (SK-MEL-28) was > 100 µM (inactive) and the GI50 (SNB-75) was 55.8 µM (inactive). For the same compound, the GI50 (HCT-15) was greater than 100 µM, the GI50 (K562) was > 100 µM (inactive) and the GI50 (COLO 205) was > 100 µM (inactive). The GI50 (HCT-116) was > 100 µM (inactive), the GI50 (NCI/ADR-RES) was > 100 µM (inactive) and the GI50 (HT-29) was > 100 µM (inactive). For the same compound, the GI50 (LOX IMVI) was > 100 µM (inactive), the GI50 (T47D) was > 100 µM (inactive) and the GI50 (SF-539) was > 100 µM (inactive). The GI50 (OVCAR-4) was > 100 µM (inactive), the GI50 (DU-145) was > 100 µM (inactive) and the GI50 (RPMI-8226) was > 100 µM (inactive). For the same compound, the GI50 (NCI-H522) was 86.5 µM (inactive), the GI50 (IGROV-1) was 72.4 µM (inactive) and the GI50 (ACHN) was 49.5 µM (inactive). For the same compound, the GI50 (SN12C) was > 100 µM (inactive), the GI50 (Malme-3M) was > 100 µM (inactive) and the GI50 (786-0) was > 100 µM (inactive). The GI50 (NCI-H23) was > 100 µM (inactive), the GI50 (UO-31) was 88.7 µM (inactive) and the GI50 (NCI-H460) was 16.7 µM (inactive). The GI50 (MCF7) was > 100 µM (inactive), the GI50 (HOP-92) was 46.7 µM (inactive) and the GI50 (SF-295) was > 100 µM (inactive). For the same compound, the GI50 (SNB-19) was > 100 µM (inactive), the GI50 (M14) was > 100 µM (inactive) and the GI50 (SK-MEL-2) was > 100 µM (inactive). The GI50 (EKVX) was > 100 µM (inactive).
With `CC(=O)OCC(OC(C)=O)C(OC(C)=O)C(C=NN(C(C)=O)S(=O)(=O)c1ccc(/C=C2\NC(=O)NC2=O)cc1)OC(C)=O` (configuration not stated) the GI50 (BT-549) was > 100 µM (inactive), the GI50 (HCC 2998) was > 100 µM (inactive) and the GI50 (RXF 393) was > 100 µM (inactive). The GI50 (OVCAR-8) was > 100 µM (inactive), the GI50 (NCI-H226) was > 100 µM (inactive) and the GI50 (HOP-62) was > 100 µM (inactive). The GI50 (CAKI-1) was > 100 µM (inactive), the GI50 (SNB-75) was > 100 µM (inactive) and the GI50 (K562) was > 100 µM (inactive). The GI50 (HT-29) was > 100 µM (inactive), the GI50 (SF-539) was > 100 µM (inactive) and the GI50 (SN12C) was > 100 µM (inactive). The GI50 (Malme-3M) was > 100 µM (inactive), the GI50 (MCF7) was > 100 µM (inactive) and the GI50 (SF-295) was > 100 µM (inactive). The GI50 (SK-MEL-2) was > 100 µM (inactive).
For `C(=C\c1ccc(-c2cn3cc(/C=C/C=N/NC4=NCCN4)ccc3n2)cc1)/C=N/NC1=NCCN1`, the GI50 (MDA-MB-435) was 1.29 µM (inactive), the GI50 (U-251) was 0.399 µM (active) and the GI50 (HL-60) was 0.368 µM (active). For the same compound, the GI50 (KM12) was 2 µM (inactive), the GI50 (HCC 2998) was 1.19 µM (inactive) and the GI50 (UACC-257) was 0.887 µM (active). For the same compound, the GI50 (RXF 393) was 1.51 µM (inactive), the GI50 (CCRF-CEM) was 1.66 µM (inactive) and the GI50 (OVCAR-8) was 1.27 µM (inactive). The GI50 (SW-620) was 0.083 µM (active), the GI50 (NCI-H226) was 1.5 µM (inactive) and the GI50 (A549) was 0.294 µM (active). For the same compound, the GI50 (TK-10) was 5.08 µM (inactive), the GI50 (SR) was 1.04 µM (active) and the GI50 (PC-3) was 1.47 µM (inactive). The GI50 (MOLT-4) was 2.07 µM (inactive), the GI50 (CAKI-1) was 1.3 µM (inactive) and the GI50 (SK-MEL-28) was 1.84 µM (inactive). For the same compound, the GI50 (SNB-75) was 1.31 µM (inactive), the GI50 (HCT-15) was 3.72 µM and the GI50 (K562) was 0.461 µM (active). The GI50 (HCT-116) was 0.589 µM (active), the GI50 (NCI/ADR-RES) was > 25.8 µM (inactive) and the GI50 (SF-539) was 1.57 µM (inactive). For the same compound, the GI50 (DU-145) was 2 µM (inactive), the GI50 (RPMI-8226) was 0.0427 µM (active) and the GI50 (IGROV-1) was 2.05 µM (inactive). The GI50 (ACHN) was 1.36 µM (inactive), the GI50 (786-0) was 1.32 µM (inactive) and the GI50 (NCI-H23) was 1.72 µM (inactive). The GI50 (UO-31) was 3.09 µM (inactive), the GI50 (NCI-H460) was 0.514 µM (active) and the GI50 (HOP-92) was 1.14 µM (inactive). The GI50 (SNB-19) was 1.27 µM (inactive), the GI50 (SK-MEL-2) was 1.35 µM (inactive) and the GI50 (EKVX) was 1.6 µM (inactive).
`Cn1c(=O)oc2nc(-c3ccccc3)cc(C(F)(F)F)c21` was tested, and the GI50 (MDA-MB-435) was 15.9 µM (inactive), the GI50 (OVCAR-5) was > 100 µM (inactive) and the GI50 (U-251) was 95.3 µM (inactive). The GI50 (KM12) was 9.93 µM (inactive), the GI50 (BT-549) was > 100 µM (inactive) and the GI50 (HCC 2998) was > 100 µM (inactive). The GI50 (UACC-257) was > 100 µM (inactive), the GI50 (OVCAR-8) was > 100 µM (inactive) and the GI50 (A498) was 39.2 µM (inactive). The GI50 (MDA-N) was 3.23 µM (inactive), the GI50 (SW-620) was > 100 µM (inactive) and the GI50 (NCI-H226) was > 100 µM (inactive). The GI50 (A549) was > 100 µM (inactive), the GI50 (MDA-MB-231) was > 100 µM (inactive) and the GI50 (OVCAR-3) was 32.8 µM (inactive). The GI50 (SF-268) was > 100 µM (inactive), the GI50 (TK-10) was > 100 µM (inactive) and the GI50 (SR) was 44.6 µM (inactive). The GI50 (SK-MEL-5) was 50.7 µM (inactive), the GI50 (PC-3) was > 100 µM (inactive) and the GI50 (HOP-62) was > 100 µM (inactive). The GI50 (MOLT-4) was 14.3 µM (inactive), the GI50 (UACC-62) was > 100 µM (inactive) and the GI50 (CAKI-1) was > 100 µM (inactive). For the same compound, the GI50 (SK-MEL-28) was > 100 µM (inactive), the GI50 (SNB-75) was > 100 µM (inactive) and the GI50 (HCT-15) was greater than 100 µM. For the same compound, the GI50 (COLO 205) was > 100 µM (inactive), the GI50 (HCT-116) was 9.33 µM (inactive) and the GI50 (NCI/ADR-RES) was 58.3 µM (inactive). The GI50 (HT-29) was 33.2 µM (inactive), the GI50 (T47D) was > 100 µM (inactive) and the GI50 (SF-539) was 5.3 µM (inactive). For the same compound, the GI50 (OVCAR-4) was 45.4 µM (inactive), the GI50 (DU-145) was > 100 µM (inactive) and the GI50 (RPMI-8226) was 30.5 µM (inactive). The GI50 (NCI-H522) was > 100 µM (inactive), the GI50 (IGROV-1) was > 100 µM (inactive) and the GI50 (ACHN) was > 100 µM (inactive). For the same compound, the GI50 (SN12C) was 5.71 µM (inactive), the GI50 (786-0) was > 100 µM (inactive) and the GI50 (NCI-H23) was > 100 µM (inactive). For the same compound, the GI50 (UO-31) was > 100 µM (inactive), the GI50 (NCI-H460) was > 100 µM (inactive) and the GI50 (SK-OV-3) was > 100 µM (inactive). For the same compound, the GI50 (MCF7) was 37.8 µM (inactive), the GI50 (HOP-92) was 35.7 µM (inactive) and the GI50 (SF-295) was > 100 µM (inactive). For the same compound, the GI50 (SNB-19) was > 100 µM (inactive), the GI50 (M14) was > 100 µM (inactive) and the GI50 (SK-MEL-2) was > 100 µM (inactive). The GI50 (EKVX) was > 100 µM (inactive).
`COc1cc(Nc2nc3cc(N)cc(N)c3nc2-c2ccccc2)cc(OC)c1OC` was tested, and the GI50 (HT-29) was 16.6 µM (inactive).
